Source: patent US20070021434A1, “NON-NUCLEOSIDE ANTI-HEPACIVIRUS AGENTS AND USES THEREOF” (Migenix Inc., priority 2005, published 2007)

Target: HCV RdRp (NS5B) (UniProt P26663)
Assay type: biochemical, hepatitis C virus

Sequence of HCV RdRp (NS5B) (P26663 whole entry, looked up): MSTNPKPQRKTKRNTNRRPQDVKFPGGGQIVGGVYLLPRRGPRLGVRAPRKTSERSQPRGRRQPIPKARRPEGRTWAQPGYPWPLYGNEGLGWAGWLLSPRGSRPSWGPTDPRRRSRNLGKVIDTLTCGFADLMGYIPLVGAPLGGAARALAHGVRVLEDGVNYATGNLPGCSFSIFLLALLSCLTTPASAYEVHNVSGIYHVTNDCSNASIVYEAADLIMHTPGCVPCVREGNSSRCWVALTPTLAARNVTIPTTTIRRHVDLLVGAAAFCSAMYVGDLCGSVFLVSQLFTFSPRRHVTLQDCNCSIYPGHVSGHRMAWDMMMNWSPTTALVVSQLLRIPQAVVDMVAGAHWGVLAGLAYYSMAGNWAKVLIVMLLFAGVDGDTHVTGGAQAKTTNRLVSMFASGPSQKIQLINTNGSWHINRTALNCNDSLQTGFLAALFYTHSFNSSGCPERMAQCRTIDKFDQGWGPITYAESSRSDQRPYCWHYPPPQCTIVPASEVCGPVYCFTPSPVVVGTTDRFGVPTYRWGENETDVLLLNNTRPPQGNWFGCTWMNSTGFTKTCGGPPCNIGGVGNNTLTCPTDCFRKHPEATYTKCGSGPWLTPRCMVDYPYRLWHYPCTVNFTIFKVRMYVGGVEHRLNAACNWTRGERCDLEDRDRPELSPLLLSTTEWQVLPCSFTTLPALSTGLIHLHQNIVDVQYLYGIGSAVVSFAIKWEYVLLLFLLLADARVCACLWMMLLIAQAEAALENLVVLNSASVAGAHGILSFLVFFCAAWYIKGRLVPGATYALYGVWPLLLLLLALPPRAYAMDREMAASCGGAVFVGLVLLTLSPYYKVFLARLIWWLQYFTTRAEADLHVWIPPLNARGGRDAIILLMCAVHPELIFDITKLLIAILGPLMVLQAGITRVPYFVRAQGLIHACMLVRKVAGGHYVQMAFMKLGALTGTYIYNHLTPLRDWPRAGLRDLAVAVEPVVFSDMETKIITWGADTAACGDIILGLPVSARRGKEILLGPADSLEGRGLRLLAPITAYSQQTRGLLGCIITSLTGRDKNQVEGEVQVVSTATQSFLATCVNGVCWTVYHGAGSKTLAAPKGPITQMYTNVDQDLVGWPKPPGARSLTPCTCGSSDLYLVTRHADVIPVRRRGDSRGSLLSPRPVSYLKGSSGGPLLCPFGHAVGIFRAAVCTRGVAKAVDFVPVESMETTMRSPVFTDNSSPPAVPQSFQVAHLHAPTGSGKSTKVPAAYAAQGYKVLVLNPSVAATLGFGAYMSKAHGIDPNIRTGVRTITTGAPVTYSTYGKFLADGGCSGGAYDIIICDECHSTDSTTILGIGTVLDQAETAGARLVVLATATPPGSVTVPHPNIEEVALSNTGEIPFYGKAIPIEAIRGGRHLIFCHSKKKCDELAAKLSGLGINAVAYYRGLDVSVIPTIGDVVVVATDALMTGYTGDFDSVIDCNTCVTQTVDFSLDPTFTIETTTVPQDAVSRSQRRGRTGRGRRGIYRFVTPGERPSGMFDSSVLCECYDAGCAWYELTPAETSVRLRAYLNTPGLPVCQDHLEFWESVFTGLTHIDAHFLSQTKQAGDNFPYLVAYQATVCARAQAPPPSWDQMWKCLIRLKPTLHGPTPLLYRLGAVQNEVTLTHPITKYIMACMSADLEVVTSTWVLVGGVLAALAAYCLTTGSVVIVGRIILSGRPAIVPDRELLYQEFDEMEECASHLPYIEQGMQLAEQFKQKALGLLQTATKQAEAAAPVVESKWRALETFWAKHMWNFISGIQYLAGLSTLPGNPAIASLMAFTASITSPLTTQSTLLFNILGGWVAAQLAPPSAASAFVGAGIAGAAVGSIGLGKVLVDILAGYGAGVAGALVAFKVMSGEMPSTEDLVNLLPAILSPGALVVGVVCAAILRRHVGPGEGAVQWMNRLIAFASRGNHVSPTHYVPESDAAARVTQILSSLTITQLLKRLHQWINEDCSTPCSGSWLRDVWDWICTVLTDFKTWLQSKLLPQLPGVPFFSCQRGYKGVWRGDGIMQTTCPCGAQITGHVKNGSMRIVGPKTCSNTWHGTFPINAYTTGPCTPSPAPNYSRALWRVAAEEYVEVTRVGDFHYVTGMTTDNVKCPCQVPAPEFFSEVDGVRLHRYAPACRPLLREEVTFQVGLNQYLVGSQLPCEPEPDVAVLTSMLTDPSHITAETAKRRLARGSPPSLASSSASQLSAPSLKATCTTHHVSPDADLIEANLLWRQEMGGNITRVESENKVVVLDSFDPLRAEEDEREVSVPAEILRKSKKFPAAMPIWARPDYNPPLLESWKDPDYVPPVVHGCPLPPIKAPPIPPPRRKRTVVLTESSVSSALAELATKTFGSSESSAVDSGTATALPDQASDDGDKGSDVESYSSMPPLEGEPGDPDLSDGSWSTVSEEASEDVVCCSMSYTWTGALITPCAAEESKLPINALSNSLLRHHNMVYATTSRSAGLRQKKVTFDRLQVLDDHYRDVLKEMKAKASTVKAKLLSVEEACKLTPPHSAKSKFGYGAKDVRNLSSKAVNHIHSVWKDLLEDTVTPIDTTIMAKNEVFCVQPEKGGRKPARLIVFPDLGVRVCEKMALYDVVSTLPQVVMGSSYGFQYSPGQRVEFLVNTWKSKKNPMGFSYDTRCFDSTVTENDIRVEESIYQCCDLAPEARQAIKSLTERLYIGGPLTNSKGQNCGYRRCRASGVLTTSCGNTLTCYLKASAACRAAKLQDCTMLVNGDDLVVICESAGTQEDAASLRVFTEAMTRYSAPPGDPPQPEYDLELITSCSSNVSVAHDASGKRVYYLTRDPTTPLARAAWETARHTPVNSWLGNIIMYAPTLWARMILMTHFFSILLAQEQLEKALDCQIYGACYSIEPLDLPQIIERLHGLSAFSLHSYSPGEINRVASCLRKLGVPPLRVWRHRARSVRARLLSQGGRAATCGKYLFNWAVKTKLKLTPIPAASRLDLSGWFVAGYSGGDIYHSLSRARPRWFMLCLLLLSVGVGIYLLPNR

Compared with Cc1ccc(NC(=O)C[C@H](CCCCN)NC(=O)Nc2ccc3c(c2)Cc2ccccc2-3)cc1 [Compound 247, (S)-7-AMINO-3-[3-(9H-FLUOREN-2-YL)-UREIDO]-HEPTANOIC ACID P-TOLYLAMIDE], Cc1ccc(NC(=O)C(Cc2ccc(CN)cc2)NC(=O)Nc2ccc3c(c2)Cc2ccccc2-3)cc1 [Compound 147, (S)-3-(4-AMINOMETHYL-PHENYL)-2-[3-(9H-FLUOREN-2-YL)-UREIDO]-N-P-TOLYL-PROPIONAMIDE] is lower in IC50: 10 to 50 µM for the first, < 10 µM for the second. The second is the more potent here.

NCCCC[C@H](NC(=O)OCC1c2ccccc2-c2ccccc21)C(=O)Nc1cccc(F)c1 [Compound 80, (S)-[5-AMINO-1-(3-FLUORO-PHENYLCARBAMOYL)-PENTYL]-CARBAMIC ACID 9H-FLUOREN-9-YLMETHYL ESTER] and NCCCC[C@H](NC(=O)OCC1c2ccccc2-c2ccccc21)C(=O)Nc1cccc(C(F)(F)F)c1 [Compound 218, (S)-[5-AMINO-1-(3-TRIFLUOROMETHYL-PHENYLCARBAMOYL)-PENTYL]-CARBAMIC ACID 9H-FLUOREN-9-YLMETHYL ESTER] cannot be ordered by IC50: > 50 µM for the first, > 50 µM for the second.

Cc1ccc(NC(=O)C(CCCC(=O)O)NC(=O)OCC2c3ccccc3-c3ccccc32)cc1 [Compound 402, (S)-5-(9H-FLUOREN-9-YLMETHOXYCARBONYLAMINO)-5-P-TOLYLCARBAMOYL-PENTANOIC ACID] and Cc1ccc(NC(=O)C(CCC(=O)O)NC(=O)OCC2c3ccccc3-c3ccccc32)cc1 [Compound 372, (S)-4-(9H-FLUOREN-9-YLMETHOXYCARBONYLAMINO)-4-P-TOLYLCARBAMOYL-BUTYRIC ACID] cannot be ordered by IC50: > 50 µM for the first, > 50 µM for the second.

Cc1ccc(NC(=O)C(CCCCN)NC(=O)CCc2c[nH]c3ccccc23)cc1 [Compound 89, (S)-6-AMINO-2-(3-1H-INDOL-3-YL-PROPIONYLAMINO)-HEXANOIC ACID P-TOLYLAMIDE] and Cc1ccc(NC(=O)C(CCCCN)NC(=O)CNCCc2c[nH]c3ccccc23)cc1 [Compound 335, (S)-6-AMINO-2-{2-[2-(1H-INDOL-3-YL)-ETHYLAMINO]-ACETYLAMINO}-HEXANOIC ACID P-TOLYLAMIDE] cannot be ordered by IC50: > 50 µM for the first, > 50 µM for the second.

CC(C)(C)OC(=O)NCCCC[C@H](N)C(=O)N(Cc1ccccc1)C1CCCCC1 [Compound 34, (S)-[5-AMINO-5-(BENZYL-CYCLOHEXYL-CARBAMOYL)-PENTYL]-CARBAMIC ACID TERT-BUTYL ESTER] and NCCCC[C@H](NC(=O)OCC1c2ccccc2-c2ccccc21)C(=O)N(Cc1ccccc1)C1CCCCC1 [Compound 33, (S)-[5-AMINO-1-(BENZYL-CYCLOHEXYL-CARBAMOYL)-PENTYL]-CARBAMIC ACID 9H-FLUOREN-9-YLMETHYL ESTER] fall in the same range of IC50: 10 to 50 µM for the first, 10 to 50 µM for the second.

Cc1ccc(NC(=O)C(Cc2ccc(O)cc2)NC(=O)OCC2c3ccccc3-c3ccccc32)cc1 [Compound 380, (R)-[2-(4-HYDROXY-PHENYL)-1-P-TOLYLCARBAMOYL-ETHYL]-CARBAMIC ACID 9H-FLUOREN-9-YLMETHYL ESTER] and Cc1ccc(NC(=O)C(CC(=O)O)NC(=O)OCC2c3ccccc3-c3ccccc32)cc1 [Compound 370, (S)-3-(9H-FLUOREN-9-YLMETHOXYCARBONYLAMINO)-NR-P-TOLYL-[…]] cannot be ordered by IC50: > 50 µM for the first, > 50 µM for the second.

Cc1ccc(NC(=O)C(CCCCN)NC(=O)Nc2ccc(C(=O)c3ccccc3)cc2)cc1 [Compound 75, (S)-6-AMINO-2-[3-(4-BENZOYL-PHENYL)-UREIDO]-HEXANOIC ACID P-TOLYLAMIDE] and Cc1ccc(NC(=O)[C@H](CCCCN)NC(=O)Nc2ccc(Oc3ccccc3)cc2)cc1 [Compound 41, (S)-6-AMINO-2-[3-(4-PHENOXY-PHENYL)-UREIDO]-HEXANOIC ACID P-TOLYLAMIDE] cannot be ordered by IC50: > 50 µM for the first, > 50 µM for the second.

NC(Cc1ccccc1)C(=O)Nc1ccc(CN(C(=O)c2ccco2)C2CCCCC2)cc1 (stereo in doubt) [Compound 11, (R)-FURAN-2-CARBOXYLIC ACID [4-(2-AMINO-3-PHENYL-PROPIONYLAMINO)-BENZYL]-CYCLOHEXYL-AMIDE] and CC(C)(C)Oc1ccc(C[C@H](N)C(=O)Nc2ccc(CN(C(=O)c3ccco3)C3CCCCC3)cc2)cc1 [Compound 8, (S)-FURAN-2-CARBOXYLIC ACID {4-[2-AMINO-3-(4-TERT-BUTOXY-PHENYL)-PROPIONYLAMINO]-BENZYL}-CYCLOHEXYL-AMIDE] cannot be ordered by IC50: > 50 µM for the first, > 50 µM for the second.

Cc1ccc(NC(=O)[C@H](CCCCN)NC(=O)CNCc2ccccc2Cl)cc1 [Compound 347, (S)-6-AMINO-2-[2-(2-CHLORO-BENZYLAMINO)-ACETYLAMINO]-HEXANOIC ACID P-TOLYLAMIDE] and Cc1ccc(NC(=O)[C@H](CCCCN)NC(=O)CNc2cccc(C)c2)cc1 [Compound 355, (S)-6-AMINO-2-(2-M-TOLYLAMINO-ACETYLAMINO)-HEXANOIC ACID P-TOLYLAMIDE] cannot be ordered by IC50: > 50 µM for the first, > 50 µM for the second.

Cc1ccc(NCC(=O)N[C@@H](CCCCN)C(=O)Nc2ccc(C)cc2)cc1 [Compound 356, (S)-6-AMINO-2-(2-P-TOLYLAMINO-ACETYLAMINO)-HEXANOIC ACID P-TOLYLAMIDE] and Cc1ccc(NC(=O)[C@H](CCCCN)NS(=O)(=O)c2ccc(C)cc2)cc1 [Compound 396, (S)-6-AMINO-2-(TOLUENE-4-SULFONYLAMINO)-HEXANOIC ACID P-TOLYLAMIDE] cannot be ordered by IC50: > 50 µM for the first, > 50 µM for the second.

Cc1ccc(NC(=O)[C@H](CCCCN)NS(=O)(=O)c2cc(Cl)sc2Cl)cc1 [Compound 395, (S)-6-AMINO-2-(2,5-DICHLORO-THIOPHENE-3-SULFONYLAMINO)-HEXANOIC ACID P-TOLYLAMIDE] and Cc1ccc(NC(=O)[C@@H](CCCCN)NC(=O)NCc2ccc(Cl)c(Cl)c2)cc1 [Compound 170, (R)-6-AMINO-2-[3-(3,4-DICHLORO-BENZYL)-UREIDO]-HEXANOIC ACID P-TOLYLAMIDE] cannot be ordered by IC50: > 50 µM for the first, > 50 µM for the second.

First: O=C(N[C@@H](Cc1c[nH]c2ccccc12)C(=O)N(Cc1ccccc1)C1CCCCC1)OCC1c2ccccc2-c2ccccc21 [Compound 49, (S)-[1-(BENZYL-CYCLOHEXYL-CARBAMOYL)-2-(1H-INDOL-3-YL)-ETHYL]-CARBAMIC ACID 9H-FLUOREN-9-YLMETHYL ESTER]
Second: Cc1ccc(NC(=O)C(CCCCCN)NC(=O)OCC2c3ccccc3-c3ccccc32)cc1 [Compound 104, (S)-(6-AMINO-1-P-TOLYLCARBAMOYL-HEXYL)-CARBAMIC ACID 9H-FLUOREN-9-YLMETHYL ESTER]
The IC50 of the first is higher: > 50 µM for the first, < 10 µM for the second. The second is the more potent here.

COc1cc2ccccc2cc1C(=O)NC(CCCCN)C(=O)Nc1ccc(C)cc1 [Compound 65, (S)-3-METHOXY-NAPHTHALENE-2-CARBOXYLIC ACID (5-AMINO-1-P-TOLYLCARBAMOYL-PENTYL)-AMIDE] and Cc1ccc(NC(=O)[C@H](CCCCN)NC(=O)COc2cccc(Cl)c2)cc1 [Compound 330, (S)-^6-AMINO-2-[2-(^3-CHLORO-PHENOXY)-ACETYLAMINO]-HEXANOIC ACID P-TOLYLAMIDE] cannot be ordered by IC50: > 50 µM for the first, > 50 µM for the second.

First: Cc1ccc(NC(=O)C(CCCCN)NC(=O)OCC2c3ccccc3-c3ccccc32)cc1 [Compound 36, (R)-(5-AMINO-1-P-TOLYLCARBAMOYL-PENTYL)-CARBAMIC ACID 9H-FLUOREN-9-YLMETHYL ESTER]
Second: Cc1ccc(NC(=O)C(CCCC[N+](C)(C)C)NC(=O)OCC2c3ccccc3-c3ccccc32)cc1 (stereo not drawn) [Compound 110]
The IC50 of the first is lower: 10 to 50 µM for the first, > 50 µM for the second.

First: O=C(CC1CNCCN1C(=O)Nc1ccc(-c2ccccc2)cc1)Nc1ccc(C2CCCCC2)cc1 (stereo not drawn) [Compound 161, 2-[(4-CYCLOHEXYL-PHENYLCARBAMOYL)-METHYL]-PIPERAZINE-1-CARBOXYLIC ACID BIPHENYL-4-YLAMIDE]
Second: Cc1ccc(NC(=O)CC2CN(C(=O)CCN)CCN2C(=O)OCC2c3ccccc3-c3ccccc32)cc1 (stereo not drawn) [Compound 183, 4-(3-AMINO-PROPIONYL)-2-(P-TOLYLCARBAMOYL-METHYL)-PIPERAZINE-1-CARBOXYLIC ACID 9H-FLUOREN-9-YLMETHYL ESTER]
The IC50 of the first is lower: 10 to 50 µM for the first, > 50 µM for the second. The first is the more potent here.

NCC(=O)Nc1ccccc1NC(=O)CNC(=O)OCC1c2ccccc2-c2ccccc21 [Compound 311, {[2-(2-AMINO-ACETYLAMINO)-PHENYLCARBAMOYL]-METHYL}-CARBAMIC ACID 9H-FLUOREN-9-YLMETHYL ESTER] and NCCC(=O)Nc1ccccc1NC(=O)CNC(=O)OCC1c2ccccc2-c2ccccc21 [Compound 312, {[2-(3-AMINO-PROPIONYLAMINO)-PHENYLCARBAMOYL]-METHYL}-CARBAMIC ACID 9H-FLUOREN-9-YLMETHYL ESTER] cannot be ordered by IC50: > 50 µM for the first, > 50 µM for the second.

First: Cc1ccc(NC(=O)C(CCNC(=O)CCN)NC(=O)OCC2c3ccccc3-c3ccccc32)cc1 [Compound 179, (S)-[3-(3-AMINO-PROPIONYLAMINO)-1-P-TOLYLCARBAMOYL-PROPYL]-CARBAMIC ACID 9H-FLUOREN-9-YLMETHYL ESTER]
Second: Cc1ccc(NC(=O)C(CCCNC(=O)CN)NC(=O)OCC2c3ccccc3-c3ccccc32)cc1 [Compound 177, (S)-[4-(2-AMINO-ACETYLAMINO)-1-P-TOLYLCARBAMOYL-BUTYL]-CARBAMIC ACID 9H-FLUOREN-9-YLMETHYL ESTER]
The IC50 of the first is higher: 10 to 50 µM for the first, < 10 µM for the second.

Compared with Cc1cc2cc(NC(=O)[C@H](Cc3ccc(CN)cc3)NC(=O)Nc3ccc(OCc4ccccc4)cc3)ccc2[nH]1 [Compound 227, (S)-3-(4-AMINOMETHYL-PHENYL)-2-[3-(4-BENZYLOXY-PHENYL)-UREIDO]-N-(2-METHYL-1H-INDOL-5-YL)-PROPIONAMIDE], Cc1ccc(NC(=O)[C@H](CCCCN)NC(=O)Nc2cccc(OCc3ccccc3)c2)cc1 [Compound 204, (S)-6-AMINO-2-[3-(3-BENZYLOXY-PHENYL)-UREIDO]-HEXANOIC ACID P-TOLYLAMIDE] is higher in IC50: < 10 µM for the first, > 50 µM for the second. The first is the more potent here.

CCN(CC)c1ccc(NC(=O)[C@H](CCCCN)NC(=O)OCC2c3ccccc3-c3ccccc32)cc1 [Compound 106, (S)-[5-AMINO-1-(4-DIETHYLAMINO-PHENYLCARBAMOYL)-PENTYL]-CARBAMIC ACID 9H-FLUOREN-9-YLMETHYL ESTER] and CC(=O)Nc1cccc(NC(=O)[C@H](CCCCN)NC(=O)OCC2c3ccccc3-c3ccccc32)c1 [Compound 231, (S)-[1-(3-ACETYLAMINO-PHENYLCARBAMOYL)-5-AMINO-PENTYL]-CARBAMIC ACID 9H-FLUOREN-9-YLMETHYL ESTER] cannot be ordered by IC50: > 50 µM for the first, > 50 µM for the second.

Work on Cc1ccc(NC(=O)C(CCCCN)NC(=O)Nc2ccc(C(F)(F)F)cc2)cc1 [Compound 42, (S)-6-AMINO-2-[3-(4-TRIFLUOROMETHYL-PHENYL)-UREIDO]-HEXANOIC ACID P-TOLYLAMIDE] yielded an IC50 of 10 to 50 µM.
